Among the data in US20260035403A1, “NUCLEOSIDE LINE-1 INHIBITORS” (TRANSPOSON THERAPEUTICS, INC., priority 2022, published 2026) are IC50 values, retold here.

For the assay, the system named is human LINE-1. The experiment in a line: Human LINE-1 retrotransposition assay (HeLa cell-based dual-luciferase reporter). The following applies: Homo sapiens, HeLa, 72 h, Human LINE-1 activity inhibition; HeLa cells, reporter plasmid pYX017, Firefly/Renilla, 72 h incubation. In outline:
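HeLa cells transfected with pYX017 dual-luciferase L1 reporter and treated with serially diluted compound (0.2% DMSO final) for 72 h at 37° C. Relative L1 activity as Firefly/Renilla ratio; IC50 from four-parameter logistic fit.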
In general terms: Reporter assays use an easily measured gene product as a stand-in for the process of interest.
The IC50 is the concentration needed to halve the response being measured. Higher therefore signals a need for much substance. `CC[C@]1(CO)O[C@@H](n2cnc3c(N)nc(Cl)nc32)[C@@H](O)[C@@H]1O` [compound 193, (2R,3S,4S,5R)-5-(6-amino-2-chloro-9H-purin-9-yl)-2-ethyl-2-(hydroxymethyl)tetrahydrofuran-3,4-diol] came in with a half-inhibitory concentration (IC50) of 2.81 µM.
`CC[C@]1(CO)O[C@@H](n2cnc3c(N)ncnc32)[C@@H](O)[C@@H]1O` [compound 194, (2R,3S,4S,5R)-5-(6-amino-9H-purin-9-yl)-2-ethyl-2-(hydroxymethyl)tetrahydrofuran-3,4-diol] gave an IC50 of 1.94 µM.
`CC[C@]1(CO)O[C@@H](n2cnc3c(N)nc(Cl)nc32)[C@H](O)[C@@H]1O` [compound 195, (2R,3S,4R,5R)-5-(6-amino-2-chloro-9H-purin-9-yl)-2-ethyl-2-(hydroxymethyl)tetrahydrofuran-3,4-diol]: the half-inhibitory concentration (IC50) is greater than 50 µM.
For `CC[C@]1(CO)O[C@@H](n2cnc3c(N)ncnc32)[C@H](O)[C@@H]1O` [compound 196, (2R,3S,4R,5R)-5-(6-amino-9H-purin-9-yl)-2-ethyl-2-(hydroxymethyl)tetrahydrofuran-3,4-diol], the 50% inhibitory concentration (IC50) is greater than 50 µM.
Compound `C[C@]1(CO)O[C@@H](n2ccc(N)nc2=O)[C@H](O)[C@@H]1O` [compound 198, 4-amino-1-((2R,3R,4S,5R)-3,4-dihydroxy-5-(hydroxymethyl)-5-methyltetrahydrofuran-2-yl)pyrimidin-2(1H)-one] showed an IC50 greater than 50 µM.
In turn, `C#C[C@]1(CO)O[C@@H](n2ccc(N)nc2=O)C(F)(F)[C@@H]1O` [compound 200, 4-amino-1-((2R,4R,5R)-5-ethynyl-3,3-difluoro-4-hydroxy-5-(hydroxymethyl)tetrahydrofuran-2-yl)pyrimidin-2(1H)-one] returned an IC50 of 414 µM.
